According to patent publication US20210047324A1 (Aptinyx Inc., priority 2018, published 2021):
Where two headings read alike, the source gives them in different places.

How the values were obtained:
NMDAR2A = biological target: T1, NMDAR2A (Homo sapiens, UniProt Q12879); assay: NMDAR agonist assay, [3H]MK-801 binding, NMDAR2A expressing HEK cell membranes; assay type: biochemical; set-up: key to NMDAR2A B: log EC50: 0=−; ≥1×10^−9 M (e.g., −8)=+; <1×10^−9 M (e.g., −10)=++; details: 50 μM glutamate; for EC50: read-out: NMDAR2A B: log EC50 (converted); for Emax: 0.25 h, read-out: NMDAR2A A: % maximal [3H]MK-801 binding relative to 1 mM glycine
T1 construct: expressed in transfected cells; host or cells: HEK cells (membrane extract)
In short: (§1)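 Membranes from HEK cells (300 μg protein) preincubated 15 min with 50 μM glutamate plus compound (1×10^−15–1×10^−7 M) or 1 mM glycine, then with 0.3 μCi [3H]MK-801 for 15 min at 25° C. (nonequilibrium); filter-bound DPM, baseline-subtracted, expressed as % of 1 mM glycine; EC50 and % maximum from three-parameter fit.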

NMDAR2B = biological target: T2, NMDAR2B (Homo sapiens, UniProt Q13224); assay: NMDAR agonist assay, [3H]MK-801 binding, NMDAR2B expressing HEK cell membranes; assay type: biochemical; details: 50 μM glutamate; for EC50: read-out: NMDAR2B B: log EC50 (converted); for Emax: read-out: NMDAR2B A: % maximal [3H]MK-801 binding relative to 1 mM glycine
T2 construct: expressed in transfected cells; host or cells: HEK cells (membrane extract)
In short: as §1

NMDAR2C = biological target: T3, NMDAR2C (Homo sapiens, UniProt Q14957); assay: NMDAR agonist assay, [3H]MK-801 binding, NMDAR2C expressing HEK cell membranes; assay type: biochemical; details: 50 μM glutamate; for EC50: read-out: NMDAR2C B: log EC50 (converted)
T3 construct: expressed in transfected cells; host or cells: HEK cells (membrane extract)
Experimental: (§2) Assays were conducted as described by Moskal et al., “GLYX-13: a monoclonal antibody-derived peptide that acts as an N-methyl-D-aspartate receptor modulator,” Neuropharmacology, 49, 1077-87, 2005. These studies were designed to determine if the test compounds act to facilitate NMDAR activation in NMDAR2A, NMDAR2B, NMDAR2C or NMDAR2D expressing HEK cell membranes as measured by increases in [^3H]MK-801 binding.
(§3) In the assay, 300 μg of NMDAR expressing HEK cell membrane extract protein was preincubated for 15 minutes at […] in the presence of saturating concentrations of glutamate (50 μM) and varying concentrations of test compound (1×10^−15M-1×10^−7M), or 1 mM glycine. Following the addition of 0.3 μCi of [3H]MK-801 (22.5 Ci/mmol), reactions were again incubated for 15 minutes at 25° C. (nonequilibrium conditions). Bound and free [3H]MK-801 were separated via rapid filtration using a Brandel apparatus.
(§4) In analyzing the data, the DPM (disintegrations per minute) of [3H]MK-801 remaining on the filter were measured for each concentration of test compound or for 1 mM glycine. The DPM values for each concentration of a ligand (N=2) were averaged. The baseline value was determined from the best fit curve of the DPM values modeled using the GraphPad program and the log(agonist) vs. response (three parameters) algorithm was then subtracted from all points in the dataset. The % maximal [^3H]MK-801 binding was then calculated relative to that of 1 mM glycine: all baseline subtracted DPM values were divided by the average value for 1 mM glycine. The EC50 and % maximal activity were then obtained from the best fit curve of the % maximal [3H]MK-801 binding data modelled using the GraphPad program and the log(agonist) vs. response (three parameters) algorithm.
(§5) The tables below summarize the results for the wild type […] NMDAR2A, NMDAR2B, NMDAR2C, and NMDAR2D, and whether the compound is not an agonist (−), is an agonist (+), or is a strong agonist (++), where column A is based on the % maximal [3H]MK-801 binding relative to 1 mM glycine (−=0; <100%=+; and >100%=++); and column B is based on log EC50 values (0=−; ≥1×10^−9 M (e.g., −8)=+; and <1×10^−9 M (e.g., −10)=++).

NMDAR2D [1] = biological target: T4, NMDAR2D (Homo sapiens, UniProt O15399); assay: NMDAR agonist assay, [3H]MK-801 binding, NMDAR2D expressing HEK cell membranes; assay type: biochemical; details: 50 μM glutamate
T4 construct: expressed in transfected cells; host or cells: HEK cells (membrane extract)
Experimental: as §2, §3, §4, §5

[2] = IV pharmacokinetics in Sprague Dawley rats; assay type: in vivo; details: rat, 2 mg/kg, normal saline
Experimental: Sprague Dawley rats were dosed intravenously using a normal saline formulation containing 2 mg/kg of the compounds identified in the below table. The table below summarizes the results of the IV pharmacokinetics.

[3] = Oral pharmacokinetics in Sprague Dawley rats (plasma, brain, CSF); assay type: in vivo; details: rat
Experimental: In another experiment, Sprague Dawley rats were dosed per os (oral gavage) using a normal saline formulation containing 10 mg/kg of the compounds identified in the table below. Plasma, brain, and CSF samples were analyzed at various time points over a 24 hour period. The table below summarizes the results of the oral pharmacokinetics, where the first three values (Tmax, Cmax and AUClast) are plasma values.

Sprague Dawley rats = assay: Porsolt forced swim test; assay type: in vivo; details: 0.1 mg/kg
Experimental: A non-clinical in vivo pharmacology study (Porsolt assay) was performed to measure antidepressant-like effects. The study allowed for the evaluation of the effects of each compound on the Porsolt forced swim test as assessed by the rats' response (reduced floating time) during a 5-minute swimming test.
Male 2-3 month old Sprague Dawley rats were used (Harlan, Indianapolis, Ind.). Rats were housed in Lucite cages with aspen wood chip bedding, maintained on a 12:12 light:dark cycle (lights on at 5 AM), and given ad libitum access to Purina lab chow (USA) and tap water throughout the study.
The Porsolt forced swim test adapted for use in rats was performed as described by Burgdorf et al., (The long-lasting antidepressant effects of rapastinel (GLYX-13) are associated with a metaplasticity process in the medial prefrontal cortex and hippocampus. Neuroscience 308:202-211, 2015). Animals were placed in a 46 cm tall×20 cm in diameter clear glass tube filled to 30 cm with tap water (23±1° C.) for 15 min on the first day (habituation) and 5 min on the subsequent test day. Animals were tested 1 h or 24 h post-dosing with the test compounds or vehicle control (0.5% sodium carboxymethyl cellulose in 0.9% sterile saline). A subset of compounds tested at 1 h post-dosing was tested again 1 wk post-dosing. Animals received a 15 min habituation session 1 day before the first 5 min test. Water was changed after every other animal. Animals were videotaped, and floating time as defined as the minimal amount of effort required to keep the animals head above water was scored offline by a blinded experimenter with high inter-rater reliability (Pearson's r >0.9).

[4] = Microsomal stability (Human); assay type: in vitro ADME; details: after 60 minutes
Experimental: (§6) Microsomal stability of disclosed compounds was investigated. The following table indicates the percent of compound remaining after 60 minutes.

[5] = Microsomal stability (Rat); assay type: in vitro ADME; details: after 60 minutes
Experimental: as §6

Plasma stability (Human) = assay type: in vitro ADME; details: after 60 minutes
Experimental: (§7) Plasma stability of disclosed compounds was investigated. The following table indicates the percent of compound remaining after 60 minutes.

Plasma stability (Rat) = assay type: in vitro ADME; details: after 60 minutes
Experimental: as §7

NMDAR2D [6] = biological target: T5, NMDAR2D (Homo sapiens, UniProt O15399+Q05586); assay: NMDAR agonist assay, [3H]MK-801 binding, NMDAR2D expressing HEK cell membranes; assay type: biochemical; details: 50 μM glutamate; read-out: NMDAR2D B: log EC50 (converted)
T5 construct: expressed in transfected cells; host or cells: HEK cells (membrane extract)
Experimental: as §2, §3, §4, §5

T2 sequence (Q13224 27-1484, species assumed, other chains not shown): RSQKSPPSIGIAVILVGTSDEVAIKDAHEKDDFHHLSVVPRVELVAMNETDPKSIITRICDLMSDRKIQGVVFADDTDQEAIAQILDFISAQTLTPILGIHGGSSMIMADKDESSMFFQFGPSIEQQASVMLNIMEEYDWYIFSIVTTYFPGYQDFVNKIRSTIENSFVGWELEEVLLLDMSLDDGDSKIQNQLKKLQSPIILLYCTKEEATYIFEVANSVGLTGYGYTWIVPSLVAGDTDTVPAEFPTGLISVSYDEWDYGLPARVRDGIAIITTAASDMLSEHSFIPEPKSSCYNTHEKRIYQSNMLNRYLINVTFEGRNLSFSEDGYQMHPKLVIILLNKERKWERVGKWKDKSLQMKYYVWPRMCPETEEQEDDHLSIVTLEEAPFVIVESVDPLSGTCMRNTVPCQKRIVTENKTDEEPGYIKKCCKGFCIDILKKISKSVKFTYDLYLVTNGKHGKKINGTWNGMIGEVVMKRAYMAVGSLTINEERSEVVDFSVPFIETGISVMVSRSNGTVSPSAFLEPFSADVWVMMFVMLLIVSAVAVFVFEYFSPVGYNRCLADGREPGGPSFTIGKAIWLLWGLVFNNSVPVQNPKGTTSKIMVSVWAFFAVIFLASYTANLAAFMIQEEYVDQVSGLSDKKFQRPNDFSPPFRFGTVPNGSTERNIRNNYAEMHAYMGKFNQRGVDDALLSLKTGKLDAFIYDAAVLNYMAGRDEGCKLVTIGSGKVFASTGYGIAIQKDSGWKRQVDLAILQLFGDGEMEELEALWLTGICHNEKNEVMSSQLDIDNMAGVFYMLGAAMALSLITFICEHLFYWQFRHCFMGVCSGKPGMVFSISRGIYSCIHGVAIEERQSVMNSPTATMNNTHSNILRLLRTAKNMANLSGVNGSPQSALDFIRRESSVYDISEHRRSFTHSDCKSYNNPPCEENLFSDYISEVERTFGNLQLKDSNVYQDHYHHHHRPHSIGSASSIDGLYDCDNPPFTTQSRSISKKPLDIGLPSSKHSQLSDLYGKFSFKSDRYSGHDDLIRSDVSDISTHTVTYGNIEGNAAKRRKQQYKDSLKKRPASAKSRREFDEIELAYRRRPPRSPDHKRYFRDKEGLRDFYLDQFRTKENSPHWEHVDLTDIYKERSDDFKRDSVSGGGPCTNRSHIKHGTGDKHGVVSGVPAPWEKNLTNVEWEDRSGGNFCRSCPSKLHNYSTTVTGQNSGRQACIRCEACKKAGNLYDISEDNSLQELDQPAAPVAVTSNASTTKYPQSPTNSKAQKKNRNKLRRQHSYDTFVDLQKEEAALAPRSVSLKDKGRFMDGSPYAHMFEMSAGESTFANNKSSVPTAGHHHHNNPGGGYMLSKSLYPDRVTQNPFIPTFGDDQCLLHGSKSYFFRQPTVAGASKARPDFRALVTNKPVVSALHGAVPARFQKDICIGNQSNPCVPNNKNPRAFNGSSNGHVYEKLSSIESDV
T3 sequence (Q14957 20-1233, species assumed, other chains not shown): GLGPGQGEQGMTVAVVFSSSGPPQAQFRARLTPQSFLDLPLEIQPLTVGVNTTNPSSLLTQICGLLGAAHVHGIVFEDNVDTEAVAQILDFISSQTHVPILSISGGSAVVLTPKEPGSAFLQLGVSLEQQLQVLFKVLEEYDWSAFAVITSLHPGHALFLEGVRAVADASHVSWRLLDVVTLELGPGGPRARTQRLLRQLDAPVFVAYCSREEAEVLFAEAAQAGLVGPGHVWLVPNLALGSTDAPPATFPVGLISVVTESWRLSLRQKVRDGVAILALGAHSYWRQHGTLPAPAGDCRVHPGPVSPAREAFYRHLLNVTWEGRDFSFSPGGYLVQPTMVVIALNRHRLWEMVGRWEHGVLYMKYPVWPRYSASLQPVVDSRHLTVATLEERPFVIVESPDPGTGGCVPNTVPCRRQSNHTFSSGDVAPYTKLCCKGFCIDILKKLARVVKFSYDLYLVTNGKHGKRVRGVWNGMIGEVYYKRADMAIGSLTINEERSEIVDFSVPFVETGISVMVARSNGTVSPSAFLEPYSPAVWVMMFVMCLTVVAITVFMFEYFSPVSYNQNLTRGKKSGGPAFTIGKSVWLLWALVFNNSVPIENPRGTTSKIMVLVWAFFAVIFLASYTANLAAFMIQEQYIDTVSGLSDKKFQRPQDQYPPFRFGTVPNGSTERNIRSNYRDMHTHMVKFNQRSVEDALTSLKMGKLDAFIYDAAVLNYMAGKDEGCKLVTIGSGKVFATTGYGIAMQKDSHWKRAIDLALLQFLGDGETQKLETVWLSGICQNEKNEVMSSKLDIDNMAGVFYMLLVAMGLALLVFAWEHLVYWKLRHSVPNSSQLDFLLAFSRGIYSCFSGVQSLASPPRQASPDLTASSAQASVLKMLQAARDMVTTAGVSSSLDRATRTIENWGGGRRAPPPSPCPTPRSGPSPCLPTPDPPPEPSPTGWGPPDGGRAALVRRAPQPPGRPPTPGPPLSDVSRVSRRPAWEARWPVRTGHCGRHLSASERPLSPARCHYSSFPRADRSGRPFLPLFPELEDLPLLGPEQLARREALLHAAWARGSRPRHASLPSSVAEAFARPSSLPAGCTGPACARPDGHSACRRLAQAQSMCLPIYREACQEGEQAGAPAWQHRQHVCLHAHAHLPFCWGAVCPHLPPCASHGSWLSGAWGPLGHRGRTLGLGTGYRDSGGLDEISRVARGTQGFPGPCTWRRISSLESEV
T1 sequence (Q12879 23-1464, species assumed, other chains not shown): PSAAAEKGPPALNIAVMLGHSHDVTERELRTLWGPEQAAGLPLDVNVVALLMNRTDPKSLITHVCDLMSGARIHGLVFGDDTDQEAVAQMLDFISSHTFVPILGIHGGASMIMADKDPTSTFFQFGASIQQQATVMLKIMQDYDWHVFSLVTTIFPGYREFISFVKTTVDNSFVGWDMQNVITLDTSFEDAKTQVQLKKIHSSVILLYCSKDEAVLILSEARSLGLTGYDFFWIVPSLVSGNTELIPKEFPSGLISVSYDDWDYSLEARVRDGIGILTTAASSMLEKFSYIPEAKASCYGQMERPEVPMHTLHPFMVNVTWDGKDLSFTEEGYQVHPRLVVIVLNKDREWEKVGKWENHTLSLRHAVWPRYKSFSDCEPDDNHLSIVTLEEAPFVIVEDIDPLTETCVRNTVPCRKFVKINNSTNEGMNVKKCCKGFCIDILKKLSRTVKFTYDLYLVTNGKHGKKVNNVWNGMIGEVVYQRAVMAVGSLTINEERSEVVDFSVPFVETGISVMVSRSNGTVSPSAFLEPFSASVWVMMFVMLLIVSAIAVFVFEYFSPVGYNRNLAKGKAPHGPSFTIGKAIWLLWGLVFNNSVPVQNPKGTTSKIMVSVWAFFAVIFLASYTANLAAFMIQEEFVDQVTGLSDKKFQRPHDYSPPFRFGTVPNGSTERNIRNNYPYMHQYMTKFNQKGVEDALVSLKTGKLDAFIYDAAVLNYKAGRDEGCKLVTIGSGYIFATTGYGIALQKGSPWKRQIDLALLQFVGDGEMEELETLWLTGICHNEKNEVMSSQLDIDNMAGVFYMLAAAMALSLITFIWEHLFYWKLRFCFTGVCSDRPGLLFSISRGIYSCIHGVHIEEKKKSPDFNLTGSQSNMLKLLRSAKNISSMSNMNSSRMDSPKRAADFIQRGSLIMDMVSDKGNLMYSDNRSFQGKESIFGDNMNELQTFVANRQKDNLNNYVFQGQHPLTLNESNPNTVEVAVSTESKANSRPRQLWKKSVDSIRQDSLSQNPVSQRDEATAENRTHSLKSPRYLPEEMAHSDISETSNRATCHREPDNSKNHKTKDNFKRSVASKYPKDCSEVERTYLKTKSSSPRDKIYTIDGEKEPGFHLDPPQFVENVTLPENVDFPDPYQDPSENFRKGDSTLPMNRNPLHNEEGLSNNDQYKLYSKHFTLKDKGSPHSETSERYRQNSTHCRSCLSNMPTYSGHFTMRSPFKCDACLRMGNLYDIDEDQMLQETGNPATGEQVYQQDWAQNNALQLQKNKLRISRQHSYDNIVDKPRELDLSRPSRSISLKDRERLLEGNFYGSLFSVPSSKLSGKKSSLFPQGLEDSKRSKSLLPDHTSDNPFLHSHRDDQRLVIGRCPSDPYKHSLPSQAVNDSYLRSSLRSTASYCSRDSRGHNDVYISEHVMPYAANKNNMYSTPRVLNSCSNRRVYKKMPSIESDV

Row | Structure (SMILES) | EC50 (NMDAR2A) | Emax (NMDAR2A; relative to 1 mM glycine) | EC50 (NMDAR2B) | Emax (NMDAR2B; relative to 1 mM glycine) | EC50 (NMDAR2C) | NMDAR2C A: % maximal [3H]MK-801 binding relative to 1 mM glycine (NMDAR2C) | NMDAR2D A: % maximal [3H]MK-801 binding relative to 1 mM glycine (NMDAR2D [1]) | CSF Cmax ([3]; per os, 10 mg/kg) | Brain Cmax ([3]; per os, 10 mg/kg) | % reduction in float time (Sprague Dawley rats; 1 h post-dose) | Significance vs. vehicle (Sprague Dawley rats; 1 h post-dose) | Microsomal (Human): percent of compound remaining [4] | Microsomal (Rat): percent of compound remaining [5] | Plasma (Human): percent of compound remaining (Plasma stability (Human)) | Plasma (Rat): percent of compound remaining (Plasma stability (Rat)) | EC50 (NMDAR2D [6]) | also measured
1 | O=C1NCCCC[C@]12CCCN2 [AU-1, (S)-1,7-diazaspiro[4.6]undecan-6-one] | ≥ 1 nM | < 100% | < 1 nM | < 100% | < 1 nM | ++ (>100%=++) | 0% | 199.26 ng/mL | 514.7 ng/mL | 86% | Yes | 100% | 91% | 100% | 100% |  | AUC(0-t) ([2]; Sprague-Dawley, in vivo, iv): 1840 ng·h/mL; clearance ([2]; Sprague-Dawley, in vivo, iv): 17.8 mL/min/kg; half-life ([2]; Sprague-Dawley, in vivo, iv): 1.41 h; Cmax ([2]; Sprague-Dawley, in vivo, iv, read-out: Cmax): 1620 ng/mL; Vd ([2]; Sprague-Dawley, in vivo, iv, read-out: Vss): 1.63 L/kg; Tmax ([3]; Sprague-Dawley, po, per os, 10 mg/kg, plasma, read-out: Tmax): 1 h; AUC(0-t) ([3]; Sprague-Dawley, plasma, po, 10 mg/kg, per os): 6960 ng·h/mL; bioavailability ([3]; Sprague-Dawley, plasma, po, 10 mg/kg, per os 10 mg/kg): 75%; Cmax ([3]; Sprague-Dawley, plasma, po, 10 mg/kg, per os, 10 mg/kg, plasma, read-out: Cmax): 2440 ng/mL
2 | CC(C)(C)OC(=O)N1CCCCCC12CNC2=O (single isomer, unassigned) [EI-1, tert-butyl 1-oxo-2,5-diazaspiro[3.6]decane-5-carboxylate] | < 1 nM | < 100% |  |  |  |  | + (<100%=+) |  |  |  |  |  |  |  |  | < 1 nM | 
3 | O=C1NCCCC[C@@]12CCCN2 [AU-2, (R)-1,7-diazaspiro[4.6]undecan-6-one] |  | 0% | < 1 nM | < 100% | < 1 nM | + (<100%=+) | + (<100%=+) |  |  |  |  |  |  |  |  | < 1 nM | NMDAR2A B: log EC50 (NMDAR2A): −
4 | CC(C)(C)OC(=O)N1CCCC12CCCNC2=O (single isomer, unassigned) [EV-2, tert-butyl 6-oxo-1,7-diazaspiro[4.5]decane-1-carboxylate] | < 1 nM |  | < 1 nM |  | < 1 nM | + (<100%=+) | + (<100%=+) | 2324.1 ng/mL | 1213 ng/mL | 84% | Yes | 79% | 91% | 100% | 79% |  | NMDAR2A A: % maximal [3H]MK-801 binding relative to 1 mM glycine (NMDAR2A; relative to 1 mM glycine): + (<100%=+); NMDAR2B A: % maximal [3H]MK-801 binding relative to 1 mM glycine (NMDAR2B; relative to 1 mM glycine): + (<100%=+); EC50 (NMDAR2D [1]; read-out: NMDAR2D B: log EC50 (converted)): < 1 nM; AUClast [2]: 1138.1 ng·h/mL; Cl [2]: 28.4 mL/min/kg; Cmax [2]: 2608.4 ng/mL; T1/2 [2]: 0.41 h; Vss [2]: 0.88 L/kg; % F ([3]; per os 10 mg/kg): 63%; AUC(0-last) ([3]; per os, 10 mg/kg, plasma): 3567.9 ng·h/mL; Cmax ([3]; per os, 10 mg/kg, plasma): 4346 ng/mL; Tmax ([3]; per os, 10 mg/kg, plasma): 0.25 h; % reduction in float time (Sprague Dawley rats; 24 h post-dose): 76%; Significance vs. vehicle (Sprague Dawley rats; 24 h post-dose): Yes
